Assay results as given in PMC11272821, “Mechanistic safety assessment via multi-omic characterisation of systemic pathway perturbations following in vivo MAT2A inhibition” (Archives of Toxicology, 2024).

Assays:
methionine = experiment: Targeted LC–MS of methionine in plasma, liver, brain and heart; assay type: in vivo, rat; conditions: 30 mg/kg BID
Protocol: SAM and methionine levels were quantified in plasma samples and tissues using Ultra Performance Liquid Chromatography (UPLC) coupled with quantitative MS in ESI positive ion mode as described in Supplementary M&M.
For LCMS analysis, standard curves were spiked to give a calibrated range of 1.0 – 1000 nM for SAM and 1.0 – 2000 for methionine. 5 µL of standard spike solution was added to 45 µL of ACN/MeOH/H2O (40/40/20 v/v/v) and 2.5 µL of deuterated citrulline is added as an internal standard. A further calibration curve was prepared with 5 µL blank mouse plasma, 5 µL of standard and 40 µL of 40:40:20 Acetonitrile:Methanol:0.5% formic acid (Aq) with 2.5 µL of deuterated citrulline was used to investigate matrix suppression effects. Blank plasma was also diluted 1:10 with ACN/MeOH/H2O (40/40/20 v/v/v) and was also analysed to establish systemic biomarker levels.
Metabolomic sample preparation and analysis. Tissue samples (liver, brain, heart) were extracted with 1 mL of ACN/MeOH/H2O 40/40/20 v/v/v per 100 mg material in a PrecellysCK28K-2 mL tube. Tissues were homogenised/extracted in 3x20 sec shake at 5500 rpm and centrifuged for 5 min at 10,621g. After centrifugation a maximum of 800 µL clear supernatant was transferred to cryovials and the same amount of extraction solvent used in the first step was added to tissue precipitate. Extraction procedure was repeated as above and clear supernatants combined in the same cryovial and vial labelled as polar metabolite extract. On the remaining tissue pellet 1ml (per100mg tissue material) of Butanol/MeOH 3/1v/v was added and the above extraction sequence applied. Resulted clear supernatant transferred to a clean cryovial and labelled as lipid extract. All samples kept at the lowest available temperature (0 °C) throughout the extraction process and stored at -80 °C until further analysis.

A1 adenosine receptor [1] = target: T1, A1 adenosine receptor (Homo sapiens, UniProt P30542); experiment: Radioligand binding assay
T1 construct: purchased Eurofins
T1 sequence (P30542 whole entry): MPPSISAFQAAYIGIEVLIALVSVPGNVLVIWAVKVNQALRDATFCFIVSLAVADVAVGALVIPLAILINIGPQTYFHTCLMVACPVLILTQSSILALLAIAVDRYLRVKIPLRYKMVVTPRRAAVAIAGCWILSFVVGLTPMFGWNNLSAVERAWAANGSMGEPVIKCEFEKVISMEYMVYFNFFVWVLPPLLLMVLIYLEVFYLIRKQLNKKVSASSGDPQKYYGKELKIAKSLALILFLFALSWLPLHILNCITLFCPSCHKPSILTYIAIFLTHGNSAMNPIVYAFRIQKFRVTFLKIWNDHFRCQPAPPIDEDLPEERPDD
Protocol: (§1) Secondary pharmacology assays were performed at Eurofins using standard experimental techniques against a total of 86 targets across a broad pharmacological space. Assay details along with experimental protocols are described at https://www.eurofinsdiscoveryservices.com. […] Assays measuring substrate turnover or phosphorylation by isolated proteins were used for kinase and enzyme targets, allowing direct determination of the mode of action of the compounds. […] Assays were run in eight points concentration response mode with half log dilutions and IC50, EC50 or Ki (Cheng and Prusoff [1973]) values determined.

AT1 angiotensin receptor = target: T2, AT1 angiotensin receptor (Homo sapiens, UniProt P30556); experiment: Radioligand binding assay
T2 construct: Eurofins
Protocol: as §1

[2] = target: T3, CCK1 cholecystokinin receptor (Homo sapiens, UniProt P32238); experiment: Radioligand binding assay
T3 construct: Eurofins
T3 sequence (P32238 whole entry): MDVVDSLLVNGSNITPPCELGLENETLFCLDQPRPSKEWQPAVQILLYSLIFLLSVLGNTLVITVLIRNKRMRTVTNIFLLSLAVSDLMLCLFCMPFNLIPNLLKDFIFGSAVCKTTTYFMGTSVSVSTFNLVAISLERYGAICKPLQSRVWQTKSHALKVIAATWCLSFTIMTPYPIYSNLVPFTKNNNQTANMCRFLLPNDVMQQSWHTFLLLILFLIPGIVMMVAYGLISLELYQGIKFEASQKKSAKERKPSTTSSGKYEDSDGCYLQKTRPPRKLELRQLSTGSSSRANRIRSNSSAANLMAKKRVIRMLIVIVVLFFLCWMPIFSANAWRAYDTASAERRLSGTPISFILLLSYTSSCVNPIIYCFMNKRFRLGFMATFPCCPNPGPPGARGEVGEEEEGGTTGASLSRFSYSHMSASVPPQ
Protocol: as §1

[3] = target: T4, Dopamine transporter (DAT) (Homo sapiens, UniProt Q01959); experiment: Radioligand binding assay
T4 construct: Eurofins
Protocol: as §1

[4] = target: T5, Glucocorticoid Receptor NR3C1 (Homo sapiens, UniProt P04150); experiment: Radioligand binding assay
T5 construct: Eurofins
Protocol: as §1

M1 muscarinic receptor = target: T6, M1 muscarinic receptor (Homo sapiens, UniProt P11229); experiment: Radioligand binding assay
T6 construct: Eurofins
T6 sequence (P11229 whole entry): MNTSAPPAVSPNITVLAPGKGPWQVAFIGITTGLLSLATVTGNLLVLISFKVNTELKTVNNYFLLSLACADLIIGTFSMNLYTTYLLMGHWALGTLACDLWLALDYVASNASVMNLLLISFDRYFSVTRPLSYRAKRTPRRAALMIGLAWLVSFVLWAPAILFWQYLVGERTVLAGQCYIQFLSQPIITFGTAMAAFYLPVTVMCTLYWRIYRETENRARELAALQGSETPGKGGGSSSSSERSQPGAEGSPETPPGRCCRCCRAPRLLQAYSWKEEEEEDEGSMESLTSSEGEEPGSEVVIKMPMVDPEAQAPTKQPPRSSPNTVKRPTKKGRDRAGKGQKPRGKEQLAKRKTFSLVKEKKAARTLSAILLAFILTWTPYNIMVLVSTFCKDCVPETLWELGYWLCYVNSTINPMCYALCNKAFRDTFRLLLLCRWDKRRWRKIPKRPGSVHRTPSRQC
Protocol: as §1

NK1 neurokinin receptor = target: T7, NK1 neurokinin receptor (Homo sapiens, UniProt P25103); experiment: Radioligand binding assay
T7 construct: Eurofins
T7 sequence (P25103 whole entry): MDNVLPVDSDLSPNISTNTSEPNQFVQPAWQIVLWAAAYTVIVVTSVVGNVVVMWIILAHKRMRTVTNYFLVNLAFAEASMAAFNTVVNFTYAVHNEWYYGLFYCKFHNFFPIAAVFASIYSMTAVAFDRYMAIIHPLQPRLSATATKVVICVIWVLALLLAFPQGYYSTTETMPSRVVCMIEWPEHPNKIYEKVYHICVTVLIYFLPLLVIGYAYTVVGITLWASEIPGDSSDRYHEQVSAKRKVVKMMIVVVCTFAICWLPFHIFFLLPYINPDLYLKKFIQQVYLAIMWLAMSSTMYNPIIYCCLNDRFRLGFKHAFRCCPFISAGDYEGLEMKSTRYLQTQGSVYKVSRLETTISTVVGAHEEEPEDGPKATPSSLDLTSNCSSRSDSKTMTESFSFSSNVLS
Protocol: as §1

[5] = target: T8, Noradrenaline Transporter (NET) (Homo sapiens, UniProt P23975); experiment: Radioligand binding assay
T8 construct: Eurofins
T8 sequence (P23975 whole entry): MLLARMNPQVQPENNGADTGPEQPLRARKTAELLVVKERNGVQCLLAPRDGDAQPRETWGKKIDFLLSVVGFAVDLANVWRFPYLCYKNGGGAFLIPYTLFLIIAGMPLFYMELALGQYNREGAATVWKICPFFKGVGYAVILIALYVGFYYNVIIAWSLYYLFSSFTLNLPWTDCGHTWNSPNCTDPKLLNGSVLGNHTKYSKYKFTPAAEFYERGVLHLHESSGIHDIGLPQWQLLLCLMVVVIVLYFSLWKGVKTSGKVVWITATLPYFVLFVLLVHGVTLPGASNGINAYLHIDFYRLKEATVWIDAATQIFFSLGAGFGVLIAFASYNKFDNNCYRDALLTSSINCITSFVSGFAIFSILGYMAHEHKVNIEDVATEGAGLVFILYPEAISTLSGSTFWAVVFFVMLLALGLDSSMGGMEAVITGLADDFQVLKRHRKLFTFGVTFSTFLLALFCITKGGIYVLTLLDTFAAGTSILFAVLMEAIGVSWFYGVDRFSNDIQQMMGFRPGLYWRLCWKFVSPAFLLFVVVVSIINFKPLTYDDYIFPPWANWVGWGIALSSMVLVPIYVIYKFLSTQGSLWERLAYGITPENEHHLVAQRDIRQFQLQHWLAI
Protocol: as §1

[6] = target: T9, Peroxisome proliferator-activated receptor-γ (Homo sapiens, UniProt P37231); experiment: Radioligand binding assay
T9 construct: Eurofins
T9 sequence (P37231 whole entry): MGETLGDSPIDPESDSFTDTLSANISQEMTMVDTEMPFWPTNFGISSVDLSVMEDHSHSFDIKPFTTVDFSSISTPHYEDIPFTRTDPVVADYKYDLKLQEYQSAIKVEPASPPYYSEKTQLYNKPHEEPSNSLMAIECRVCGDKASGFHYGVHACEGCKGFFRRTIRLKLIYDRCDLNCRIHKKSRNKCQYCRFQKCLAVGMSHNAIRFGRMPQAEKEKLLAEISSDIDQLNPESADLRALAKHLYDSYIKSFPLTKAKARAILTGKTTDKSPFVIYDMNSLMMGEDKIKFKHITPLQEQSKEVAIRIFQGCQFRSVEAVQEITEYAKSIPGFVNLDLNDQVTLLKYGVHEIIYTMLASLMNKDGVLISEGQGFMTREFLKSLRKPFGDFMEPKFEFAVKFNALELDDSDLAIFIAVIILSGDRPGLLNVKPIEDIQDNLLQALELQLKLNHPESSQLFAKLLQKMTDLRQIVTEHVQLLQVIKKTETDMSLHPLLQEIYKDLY
Protocol: as §1

α1A adrenoceptor = target: T10, α1A adrenoceptor (Homo sapiens, UniProt P35348); experiment: Radioligand binding assay
T10 construct: Eurofins
Protocol: as §1

δ opioid Receptor = target: T11, δ opioid Receptor (Homo sapiens, UniProt P41143); experiment: Radioligand binding assay
T11 construct: Eurofins
Protocol: as §1

κ opioid receptor = target: T12, κ opioid receptor (Homo sapiens, UniProt P41145); experiment: Radioligand binding assay
T12 construct: Eurofins
T12 sequence (P41145 whole entry): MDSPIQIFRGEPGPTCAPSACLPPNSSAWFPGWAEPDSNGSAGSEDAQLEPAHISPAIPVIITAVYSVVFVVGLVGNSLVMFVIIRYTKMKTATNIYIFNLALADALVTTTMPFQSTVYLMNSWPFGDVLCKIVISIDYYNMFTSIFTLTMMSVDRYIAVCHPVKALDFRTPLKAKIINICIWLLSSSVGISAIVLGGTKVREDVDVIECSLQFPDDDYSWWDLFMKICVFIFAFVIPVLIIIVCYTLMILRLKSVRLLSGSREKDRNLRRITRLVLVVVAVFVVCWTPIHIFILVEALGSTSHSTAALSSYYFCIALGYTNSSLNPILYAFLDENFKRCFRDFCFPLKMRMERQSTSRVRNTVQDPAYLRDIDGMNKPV
Protocol: as §1

A1 adenosine receptor [7] = target: T1, A1 adenosine receptor; experiment: Cell based functional assay; conditions: mode of action ND
Protocol: as §1

A2A adenosine receptor = target: T13, A2A adenosine receptor (Homo sapiens, UniProt P29274); experiment: Cell based functional assay; conditions: mode of action ND
T13 construct: Eurofins
T13 sequence (P29274 whole entry): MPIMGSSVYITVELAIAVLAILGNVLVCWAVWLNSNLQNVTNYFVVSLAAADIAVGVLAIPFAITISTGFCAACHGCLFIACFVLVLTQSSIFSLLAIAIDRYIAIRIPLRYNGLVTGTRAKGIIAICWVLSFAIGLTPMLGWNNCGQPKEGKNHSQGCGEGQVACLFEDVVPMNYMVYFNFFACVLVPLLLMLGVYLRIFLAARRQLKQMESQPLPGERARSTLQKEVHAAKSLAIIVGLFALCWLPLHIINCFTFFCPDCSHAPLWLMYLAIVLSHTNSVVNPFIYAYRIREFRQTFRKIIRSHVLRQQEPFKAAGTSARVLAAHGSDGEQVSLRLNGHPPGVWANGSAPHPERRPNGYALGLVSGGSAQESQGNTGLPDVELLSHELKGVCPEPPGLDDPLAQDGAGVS
Protocol: as §1

CB1 cannabinoid receptor = target: T14, CB1 cannabinoid receptor (Homo sapiens, UniProt P21554); experiment: Cell based functional assay; conditions: mode of action ND
T14 construct: purchased Eurofins
Protocol: as §1

α1B adrenoceptor = target: T15, α1B adrenoceptor (Homo sapiens, UniProt P35368); experiment: Cell based functional assay
T15 construct: Eurofins
T15 sequence (P35368 1-520): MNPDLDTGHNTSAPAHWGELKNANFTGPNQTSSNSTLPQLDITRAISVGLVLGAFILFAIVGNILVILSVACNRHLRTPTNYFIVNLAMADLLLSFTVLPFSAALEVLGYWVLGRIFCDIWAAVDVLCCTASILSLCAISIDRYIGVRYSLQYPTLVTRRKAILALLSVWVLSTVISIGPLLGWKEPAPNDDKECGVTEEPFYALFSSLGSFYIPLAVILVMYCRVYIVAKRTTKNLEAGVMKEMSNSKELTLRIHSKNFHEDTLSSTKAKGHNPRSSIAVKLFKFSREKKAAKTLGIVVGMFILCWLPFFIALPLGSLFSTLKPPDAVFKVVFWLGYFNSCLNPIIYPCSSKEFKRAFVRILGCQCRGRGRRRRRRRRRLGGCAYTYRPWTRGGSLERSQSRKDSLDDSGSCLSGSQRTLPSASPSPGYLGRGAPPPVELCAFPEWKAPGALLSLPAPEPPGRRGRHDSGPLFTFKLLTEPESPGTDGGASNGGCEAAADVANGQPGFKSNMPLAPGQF
Protocol: as §1

hERG = hERG (Homo sapiens, UniProt Q12809); experiment: hERG safety assay; assay type: cell-based; conditions: Full curve
hERG, sequence (Q12809 whole entry): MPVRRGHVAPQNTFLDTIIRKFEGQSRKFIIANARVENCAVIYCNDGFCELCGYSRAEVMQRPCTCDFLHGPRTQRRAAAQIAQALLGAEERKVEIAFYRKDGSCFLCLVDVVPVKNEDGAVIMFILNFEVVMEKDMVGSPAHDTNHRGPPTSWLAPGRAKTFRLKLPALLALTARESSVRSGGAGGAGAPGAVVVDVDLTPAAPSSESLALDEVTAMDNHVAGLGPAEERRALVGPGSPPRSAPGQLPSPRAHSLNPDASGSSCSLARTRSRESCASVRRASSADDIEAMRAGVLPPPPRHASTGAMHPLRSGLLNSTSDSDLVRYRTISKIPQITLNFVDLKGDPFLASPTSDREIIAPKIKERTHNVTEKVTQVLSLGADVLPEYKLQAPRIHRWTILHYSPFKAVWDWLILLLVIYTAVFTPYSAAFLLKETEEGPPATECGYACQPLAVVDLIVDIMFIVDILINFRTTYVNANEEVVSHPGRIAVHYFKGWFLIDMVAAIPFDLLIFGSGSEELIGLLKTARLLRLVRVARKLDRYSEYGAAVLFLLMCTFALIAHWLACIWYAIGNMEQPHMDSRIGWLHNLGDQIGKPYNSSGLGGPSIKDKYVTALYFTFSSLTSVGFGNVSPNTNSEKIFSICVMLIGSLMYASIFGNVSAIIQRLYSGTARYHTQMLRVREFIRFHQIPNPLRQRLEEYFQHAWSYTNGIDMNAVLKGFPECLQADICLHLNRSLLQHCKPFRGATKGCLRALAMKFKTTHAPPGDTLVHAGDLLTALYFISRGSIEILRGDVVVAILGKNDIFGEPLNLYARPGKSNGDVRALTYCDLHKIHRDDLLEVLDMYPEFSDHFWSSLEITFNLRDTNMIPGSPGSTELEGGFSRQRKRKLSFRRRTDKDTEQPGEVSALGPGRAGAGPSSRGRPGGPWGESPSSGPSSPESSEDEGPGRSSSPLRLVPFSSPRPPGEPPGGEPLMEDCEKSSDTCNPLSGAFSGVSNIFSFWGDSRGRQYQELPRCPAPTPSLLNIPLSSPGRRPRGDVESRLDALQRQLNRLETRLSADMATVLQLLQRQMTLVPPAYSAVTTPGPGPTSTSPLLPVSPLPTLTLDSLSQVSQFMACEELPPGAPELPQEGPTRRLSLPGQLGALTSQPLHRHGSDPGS
Source text: (§2) Full curve IC50 (µM) for hERG (human ether-a-go-go-related gene) and the cardiac ion channel panel (sodium and potassium ion channels; Nav1.5, IKs, Kv4.3), along with the L-type Calcium channel (Cav-1.2 Ver; verapamil, DIL; diltiazem), HepG2 C3A 3D spheroids, HepG2 C3A (2D cultures in glucose or galactose media), and THP1 cytotoxicity.

HepG2 Spheroid = experiment: HepG2 C3A 3D spheroid cytotoxicity; assay type: cell-based; conditions: 3D spheroids; read-out: HepG2 Spheroid Cytotox IC50
Source text: as §2

[8] = design: method as in Atkinson et al. [2024]; conditions: ref Atkinson et al. [2024]; cited from earlier work

## Cn1cc2cc(-c3cc4[nH]nc(C5CC5)c4n(-c4ccc(OC(F)F)cc4)c3=O)ccc2n1 [AZ’9567]
methionine
  Brain Methionine % Control: 1835 % Control
  Heart Methionine % Control: 1316 % Control
  Liver Methionine % Control: 2314 % Control
  Plasma Methionine % Control: 1557 % Control
A1 adenosine receptor [1]
  Ki: 2.6 µM
AT1 angiotensin receptor
  Ki: 12.7 µM
[2]
  Ki: 25.3 µM
[3]
  Ki: 22.6 µM
[4]
  Ki: 24.8 µM
M1 muscarinic receptor
  Ki: 69.7 µM
NK1 neurokinin receptor
  Ki: 10.2 µM
[5]
  Ki: 33.3 µM
[6]
  Ki: 33.3 µM
α1A adrenoceptor
  Ki: 12.7 µM
δ opioid Receptor
  Ki: 12.8 µM
κ opioid receptor
  Ki: 6 µM
A1 adenosine receptor [7]
  Functional IC50 or EC50: >30.1 µM
A2A adenosine receptor
  Functional IC50 or EC50: >100 µM
CB1 cannabinoid receptor
  Functional IC50 or EC50: >100 µM
α1B adrenoceptor
  Pharmacological mode of action: Antagonist
α1B adrenoceptor; Antagonist, read-out: Functional IC50 or EC50
  IC50: 28.9 µM
hERG
  IC50: 33.1 µM
HepG2 Spheroid
  IC50: 58.7 µM
[8]
  brain penetrance Kpu,u: 0.03 ± 0.01
